Source: patent publication US10301267B2, “Compounds” (AstraZeneca AB, priority 2006, dated 2019)
Counter-ions that a name gives are not always drawn.

Molecular target: FGFR1 active kinase (Homo sapiens, UniProt P11362)
Test: FGFR Kinase assay - Caliper; also: 408 µM ATP
Type: biochemical
Settings: FGFR1 […], 408 uM ATP; mean of n as printed; read-out: FGFR Kinase assay - Caliper, IC50
Description: FGFR Kinase Assay—Caliper
To determine inhibition of FGFR activity, kinase assays were conducted using Caliper technology.
Kinase activity assays were performed in Greiner 384-well low volume plates, with a total reaction volume of 12 ul per well. Final concentration of FGFR1 active kinase in each reaction well was 7.2 nM. The substrate for each assay was a custom peptide with fluorescent tag (13 amino acids in length, […] with the fluorescene tag on the first K).
Compounds were serially diluted in 5% (v/v) DMSO, before being added to assay plates. The Enzyme (at 7.2 nM [final]) and Substrate (at 3.6 uM [final]) were added separately to the compound plates, in reaction buffer [comprising: 50 mM MOPS (Sigma, Catalogue No. M1254)—pH 6.5, 0.004% Triton (Sigma, Catalogue No. X-100), 2.4 mM DTT, 12 mM MgCl2, 408 uM ATP] resulting in a final DMSO concentration in the reaction mix of 0.8%.
Assay plates were incubated at room temperature for 1.5 h, before the reaction was stopped with the addition of buffer [comprising: 100 mM HEPES—pH7.5, 0.033% Brij-35 (Sigma Catalogue No. B4184), 0.22% Caliper Coating Reagent #3 (Caliper Life Sciences Catalogue No. 760050), 88 mM EDTA, 5% DMSO]. Stopped assay plates were then read using the Caliper LabChip® LC3000 (which uses microfludics to measure a shift in mobility between fluorescent labelled peptide and the FGFR1 kinase—phosphorylated form of this peptide).
In the assay, compounds were tested at a range of concentrations.
Percentage inhibition at 1 uM, as expressed herein, is a calculated value based on the curve fit that was generated experimentally. From the fitted curve plot, the effect of compound at a concentration of 1 uM was calculated as a percentage inhibition. The IC50 is the concentration of compound, which inhibits FGFR1 kinase activity by 50% in the context of this assay.

Sequence of FGFR1 active kinase (P11362 22-822): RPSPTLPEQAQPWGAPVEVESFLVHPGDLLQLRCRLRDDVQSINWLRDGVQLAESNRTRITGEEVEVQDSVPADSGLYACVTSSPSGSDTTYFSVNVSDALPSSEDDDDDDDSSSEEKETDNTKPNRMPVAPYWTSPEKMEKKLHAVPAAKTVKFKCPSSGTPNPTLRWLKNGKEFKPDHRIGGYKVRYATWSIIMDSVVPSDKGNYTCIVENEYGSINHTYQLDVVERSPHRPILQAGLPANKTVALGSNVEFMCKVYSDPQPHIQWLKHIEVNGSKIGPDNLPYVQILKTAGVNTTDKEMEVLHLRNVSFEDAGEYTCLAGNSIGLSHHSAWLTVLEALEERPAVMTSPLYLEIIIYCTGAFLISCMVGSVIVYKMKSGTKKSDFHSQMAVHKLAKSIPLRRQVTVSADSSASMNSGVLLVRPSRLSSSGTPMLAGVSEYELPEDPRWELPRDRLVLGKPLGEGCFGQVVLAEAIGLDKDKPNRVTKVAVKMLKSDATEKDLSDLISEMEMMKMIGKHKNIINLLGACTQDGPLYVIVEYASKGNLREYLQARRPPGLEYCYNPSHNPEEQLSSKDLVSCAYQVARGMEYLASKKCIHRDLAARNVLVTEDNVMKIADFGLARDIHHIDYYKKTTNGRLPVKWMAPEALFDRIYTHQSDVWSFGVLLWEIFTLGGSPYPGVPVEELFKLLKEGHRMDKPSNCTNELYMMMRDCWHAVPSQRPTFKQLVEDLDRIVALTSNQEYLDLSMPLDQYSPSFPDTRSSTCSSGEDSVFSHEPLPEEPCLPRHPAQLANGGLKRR

| SMILES | IC50 [nM] |
| --- | --- |
| COc1cccc(CCc2cc(NC(=O)c3ccc(NC(=O)c4ccccc4)cc3)[nH]n2)c1 [Example 21, 4-Benzamido-N-[5-[2-(3-methoxyphenyl)ethyl]-2H-pyrazol-3-yl]benzamide] | 231000 |
| COc1cccc(CCc2cc(NC(=O)c3ccc(C#N)cc3)[nH]n2)c1 [Example 23, 4-Cyano-N-[5-[2-(3-methoxyphenyl)ethyl]-2H-pyrazol-3-yl]benzamide] | 28600 |
| COc1cccc(CCc2cc(NC(=O)c3ccc(-n4cccn4)cc3)[nH]n2)c1 [Example 25, N-[5-[2-(3-Methoxyphenyl)ethyl]-2H-pyrazol-3-yl]-4-pyrazol-1-yl-benzamide] | 940 |
| COc1cccc(CCc2cc(NC(=O)c3ccc(Nc4ccccc4)nc3)[nH]n2)c1 [Example 26, 6-Anilino-N-[5-[2-(3-methoxyphenyl)ethyl]-2H-pyrazol-3-yl]pyridine-3-carboxamide] | 64000 |
| COc1cccc(CCc2cc(NC(=O)c3ccc(NS(C)(=O)=O)cc3)[nH]n2)c1 [Example 27, 4-Methanesulfonamido-N-[5-[2-(3-methoxyphenyl)ethyl]-2H-pyrazol-3-yl]benzamide] | 260 |
| COc1cccc(CCc2cc(NC(=O)c3ccc(NC=O)cn3)[nH]n2)c1 [Example 29, 5-Formamido-N-[5-[2-(3-methoxyphenyl)ethyl]-2H-pyrazol-3-yl]pyridine-2-carboxamide] | 870 |
| COc1cccc(CCc2cc(NC(=O)c3ccc(S(=O)(=O)N(C)C)cc3)[nH]n2)c1 [Example 30, 4-(Dimethylsulfamoyl)-N-[5-[2-(3-methoxyphenyl)ethyl]-2H-pyrazol-3-yl]benzamide] | 800 |
| COc1cccc(CCc2cc(NC(=O)c3ccc(O)nc3)[nH]n2)c1 [Example 31, 6-Hydroxy-N-[5-[2-(3-methoxyphenyl)ethyl]-2H-pyrazol-3-yl]pyridine-3-carboxamide] | 1050 |
| COc1cccc(CCc2cc(NC(=O)c3ccc(-c4cnco4)cc3)[nH]n2)c1 [Example 33, N-[5-[2-(3-Methoxyphenyl)ethyl]-2H-pyrazol-3-yl]-4-(1,3-oxazol-5-yl)benzamide] | 1200 |
| COc1cccc(CCc2cc(NC(=O)c3ccc(-n4cnnn4)cc3)[nH]n2)c1 [Example 34, N-[5-[2-(3-Methoxyphenyl)ethyl]-2H-pyrazol-3-yl]-4-(tetrazol-1-yl)benzamide] | 1000 |
| C=CCOC(=O)Nc1ccc(C(=O)Nc2cc(CCc3cccc(OC)c3)n[nH]2)cn1 [Example 35, Prop-2-enyl N-[5-[[5-[2-(3-methoxyphenyl)ethyl]-2H-pyrazol-3-yl]carbamoyl]pyridin-2-yl]carbamate] | 76000 |
| COc1cccc(CCc2cc(NC(=O)c3ccc(-n4cncn4)cc3)[nH]n2)c1 [Example 36, N-[5-[2-(3-Methoxyphenyl)ethyl]-2H-pyrazol-3-yl]-4-(1,2,4-triazol-1-yl)benzamide] | 660 |
| COc1cccc(CCc2cc(NC(=O)c3ccc(-n4cccn4)nc3)[nH]n2)c1 [Example 37, N-[5-[2-(3-Methoxyphenyl)ethyl]-2H-pyrazol-3-yl]-6-pyrazol-1-yl-pyridine-3-carboxamide] | 69000 |
| COc1cc(CCc2cc(NC(=O)c3ccc(F)cc3)[nH]n2)cc(OC)c1 [Example 38, N-[5-[2-(3,5-Dimethoxyphenyl)ethyl]-2H-pyrazol-3-yl]-4-fluoro-benzamide] | 165 |
| COc1cc(CCc2cc(NC(=O)c3cccc(OC)c3)n[nH]2)cc(OC)c1 [Example 39, N-[5-[2-(3,5-Dimethoxyphenyl)ethyl]-1H-pyrazol-3-yl]-3-methoxy-benzamide] | 370 |
| COc1cc(CCc2cc(NC(=O)c3cccc(N4CCOCC4)c3)n[nH]2)cc(OC)c1 [Example 40, N-[5-[2-(3,5-Dimethoxyphenyl)ethyl]-1H-pyrazol-3-yl]-3-morpholin-4-yl-benzamide] | 710 |
| COc1cc(CCc2cc(NC(=O)c3ccccc3OC)n[nH]2)cc(OC)c1 [Example 41, N-[5-[2-(3,5-Dimethoxyphenyl)ethyl]-1H-pyrazol-3-yl]-2-methoxy-benzamide] | 2610 |
| COc1cc(CCc2cc(NC(=O)c3ccc(N4CCCCC4)cc3)n[nH]2)cc(OC)c1 [Example 43, N-[5-[2-(3,5-Dimethoxyphenyl)ethyl]-1H-pyrazol-3-yl]-4-(1-piperidyl)benzamide] | 438 |
| COc1cc(CCc2cc(NC(=O)c3ccc(CN4CCc5ccc(C#N)cc5C4)cc3)n[nH]2)cc(OC)c1 [Example 52, 4-[(7-Cyano-3,4-dihydro-1H-isoquinolin-2-yl)methyl]-N-[5-[2-(3,5-dimethoxyphenyl)ethyl]-1H-pyrazol-3-yl]benzamide] | 486 |
| COc1cc(CCc2cc(NC(=O)c3ccc(OCCN4CCOCC4)cc3)n[nH]2)cc(OC)c1 [Example 54, N-[5-[2-(3,5-Dimethoxyphenyl)ethyl]-1H-pyrazol-3-yl]-4-(2-morpholin-4-ylethoxy)benzamide] | 96 |
| COc1cc(CCc2cc(NC(=O)c3ccc(CCN4CCOCC4)cc3)n[nH]2)cc(OC)c1 [Example 56, N-[5-[2-(3,5-Dimethoxyphenyl)ethyl]-1H-pyrazol-3-yl]-4-(2-morpholin-4-ylethyl)benzamide] | 120 |
| COc1cc(CCc2cc(NC(=O)c3ccc(N(C)C)cc3)n[nH]2)cc(OC)c1 [Example 59, N-[5-[2-(3,5-Dimethoxyphenyl)ethyl]-1H-pyrazol-3-yl]-4-dimethylamino-benzamide] | 134 |
| COc1cc(CCc2cc(NC(=O)c3ccc(N4CCNCC4)s3)n[nH]2)cc(OC)c1 [Example 60, N-[5-[2-(3,5-Dimethoxyphenyl)ethyl]-1H-pyrazol-3-yl]-5-piperazin-1-yl-thiophene-2-carboxamide (2,2,2-trifluoroacetic Acid Salt)] | 22 |

Now from value to compound:

| IC50 [nM] | SMILES |
| --- | --- |
| 74 | COc1cccc(CCc2cc(NC(=O)c3ccc(CO)cc3)[nH]n2)c1 [Example 28, 4-(Hydroxymethyl)-N-[5-[2-(3-methoxyphenyl)ethyl]-2H-pyrazol-3-yl]benzamide] |
| 27 | COc1cccc(CCc2cc(NC(=O)c3ccc(N4CCOCC4)nc3)[nH]n2)c1 [Example 32, N-[5-[2-(3-Methoxyphenyl)ethyl]-2H-pyrazol-3-yl]-6-morpholin-4-yl-pyridine-3-carboxamide] |
| 75 | CCOCCOc1ccc(C(=O)Nc2cc(CCc3cc(OC)cc(OC)c3)[nH]n2)cc1 [Example 42, N-[5-[2-(3,5-Dimethoxyphenyl)ethyl]-1H-pyrazol-3-yl]-4-(2-ethoxyethoxy)benzamide] |
| 25 | COc1cc(CCc2cc(NC(=O)c3ccc(OCC4CCNCC4)cc3)n[nH]2)cc(OC)c1 [Example 44, N-[5-[2-(3,5-Dimethoxyphenyl)ethyl]-1H-pyrazol-3-yl]-4-(4-piperidylmethoxy)benzamide] |
| 26 | COc1cc(CCc2cc(NC(=O)c3ccc(N4CCNCC4)cc3)n[nH]2)cc(OC)c1 [Example 45, N-[5-[2-(3,5-Dimethoxyphenyl)ethyl]-1H-pyrazol-3-yl]-4-piperazin-1-yl-benzamide] |
| 40 | COc1cc(CCc2cc(NC(=O)c3ccc(N4CCNCC4)nc3)n[nH]2)cc(OC)c1 [Example 46, N-[5-[2-(3,5-Dimethoxyphenyl)ethyl]-1H-pyrazol-3-yl]-6-piperazin-1-yl-pyridine-3-carboxamide] |
| 19 | COc1cc(CCc2cc(NC(=O)c3ccc(CN(C)C)cc3)n[nH]2)cc(OC)c1 [Example 47, N-[5-[2-(3,5-Dimethoxyphenyl)ethyl]-1H-pyrazol-3-yl]-4-(dimethylaminomethyl)benzamide] |
| 39 | COc1cc(CCc2cc(NC(=O)c3ccc(OCCO)cc3)n[nH]2)cc(OC)c1 [Example 48, N-[5-[2-(3,5-Dimethoxyphenyl)ethyl]-1H-pyrazol-3-yl]-4-(2-hydroxyethoxy)benzamide] |
| 1 | COc1cc(CCc2cc(NC(=O)c3ccc(CN4CCCC(C)(C)C4)cc3)n[nH]2)cc(OC)c1 [Example 50, N-[5-[2-(3,5-Dimethoxyphenyl)ethyl]-1H-pyrazol-3-yl]-4-[(3,3-dimethyl-1-piperidyl)methyl]benzamide] |
| 81 | COc1cc(CCc2cc(NC(=O)c3ccc(N4CCN(CCO)CC4)cc3)n[nH]2)cc(OC)c1 [Example 51, N-[5-[2-(3,5-Dimethoxyphenyl)ethyl]-1H-pyrazol-3-yl]-4-[4-(2-hydroxyethyl)piperazin-1-yl]benzamide] |
| 90 | COc1cc(CCc2cc(NC(=O)c3ccc(CN4CCCC(F)C4)cc3)n[nH]2)cc(OC)c1 (centres unmarked) [Example 53, N-[5-[2-(3,5-Dimethoxyphenyl)ethyl]-1H-pyrazol-3-yl]-4-[(3-fluoro-1-piperidyl)methyl]benzamide] |
| 1 | COc1cc(CCc2cc(NC(=O)c3ccc(C4CCNCC4)cc3)n[nH]2)cc(OC)c1 [Example 58, N-[5-[2-(3,5-Dimethoxyphenyl)ethyl]-1H-pyrazol-3-yl]-4-(4-piperidyl)benzamide] |
